Source: paper PMC3755734 (Angewandte Chemie (International ed. in English), 2011)
pIC50: −log10 of the molar value.

How the values were obtained:
Format in all cases: biochemical
[1] = biological target: T1, CKIα (Homo sapiens, UniProt P48729); assay: in vitro kinase assay
T1 sequence (P48729 2-337): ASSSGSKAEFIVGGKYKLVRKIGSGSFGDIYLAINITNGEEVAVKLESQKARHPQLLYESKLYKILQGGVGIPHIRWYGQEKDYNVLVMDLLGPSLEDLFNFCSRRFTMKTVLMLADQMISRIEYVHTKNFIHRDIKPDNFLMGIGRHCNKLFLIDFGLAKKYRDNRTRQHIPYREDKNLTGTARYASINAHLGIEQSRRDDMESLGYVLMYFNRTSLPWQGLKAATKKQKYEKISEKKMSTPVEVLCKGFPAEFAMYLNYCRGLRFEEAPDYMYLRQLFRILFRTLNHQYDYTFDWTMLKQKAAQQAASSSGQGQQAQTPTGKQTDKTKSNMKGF

[2] = biological target: casein kinase 1 delta (CKIδ) (Homo sapiens, UniProt P48730); assay: in vitro kinase assay IC50
[3] = biological target: CKIε (Homo sapiens, UniProt P49674); assay: in vitro kinase assay
Sequence of CKIε (P49674 whole entry): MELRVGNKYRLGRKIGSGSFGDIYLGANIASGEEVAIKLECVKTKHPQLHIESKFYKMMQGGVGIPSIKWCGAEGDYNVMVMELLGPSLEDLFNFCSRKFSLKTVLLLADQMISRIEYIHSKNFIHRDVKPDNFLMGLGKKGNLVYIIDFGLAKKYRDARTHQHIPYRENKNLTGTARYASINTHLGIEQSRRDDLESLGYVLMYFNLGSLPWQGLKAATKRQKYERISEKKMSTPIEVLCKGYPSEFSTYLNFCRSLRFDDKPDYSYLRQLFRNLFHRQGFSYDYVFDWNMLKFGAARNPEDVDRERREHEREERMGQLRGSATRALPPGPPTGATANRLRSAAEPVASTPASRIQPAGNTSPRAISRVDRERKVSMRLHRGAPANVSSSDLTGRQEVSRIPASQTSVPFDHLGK

Sequence of casein kinase 1 delta (CKIδ) (P48730 whole entry): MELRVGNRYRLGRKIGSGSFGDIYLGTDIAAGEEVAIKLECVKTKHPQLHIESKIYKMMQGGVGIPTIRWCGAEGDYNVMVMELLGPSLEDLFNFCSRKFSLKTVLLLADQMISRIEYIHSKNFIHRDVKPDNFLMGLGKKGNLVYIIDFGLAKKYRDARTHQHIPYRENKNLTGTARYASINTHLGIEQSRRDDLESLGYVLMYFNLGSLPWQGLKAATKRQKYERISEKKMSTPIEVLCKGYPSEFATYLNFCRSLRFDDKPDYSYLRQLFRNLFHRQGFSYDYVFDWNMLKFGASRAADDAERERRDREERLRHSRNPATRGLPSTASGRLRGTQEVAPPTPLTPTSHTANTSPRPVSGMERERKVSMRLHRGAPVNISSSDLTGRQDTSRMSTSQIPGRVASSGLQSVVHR

Cc1cc2sc(NC(=O)Cc3ccccc3)nc2cc1Cl [LH846]
pIC50 [1]: 5.60 | pIC50 [2]: 6.54 | pIC50 [3]: 5.89
